Data published in ChEMBL document CHEMBL3885861, “Open TG-GATES”.

Species on record: Rattus norvegicus
Assay: Open TG-GATES - Regimen: Single
Assay type: toxicity, organism-based, Sprague-Dawley
Parameters: regimen Single, gender Male, age 6 weeks
Conditions: in vivo, iv, route intravenous injection; for KIDNEY_L / KIDNEY_R / KIDNEY_TOTAL: tissue Kidney; for LIVER: tissue Liver
[1] = 1 mg/kg, 3 h, tissue Blood, dose level Low
[2] = 1 mg/kg, 3 h, tissue Plasma, dose level Low
[3] = 1 mg/kg, 6 h, tissue Blood, dose level Low
[4] = 1 mg/kg, 6 h, tissue Plasma, dose level Low
[5] = 1 mg/kg, 9 h, tissue Blood, dose level Low
[6] = 1 mg/kg, 9 h, tissue Plasma, dose level Low
[7] = 1 mg/kg, 24 h, tissue Blood, dose level Low
[8] = 1 mg/kg, 24 h, tissue Plasma, dose level Low

## COc1cccc2c1C(=O)c1c(O)c3c(c(O)c1C2=O)C[C@@](O)(C(=O)CO)C[C@@H]3O[C@H]1C[C@H](N)[C@H](O)[C@H](C)O1 [DOXORUBICIN]
1 mg/kg, 3 h, dose level Low
  TERMINAL_BW: 214.5 g
  KIDNEY_L: 0.9 g
  KIDNEY_R: 0.9 g
  KIDNEY_TOTAL: 1.9 g
  LIVER: 9.4 g
[1]
  Bas: 0%
  Eos: 1%
  Fbg: 272 mg/dL
  Hb: 13.4 g/dL
  Ht: 38.5%
  Lym: 77%
  MCH: 21.8 pg
  MCHC: 34.8%
  MCV: 62.7 fL
  Mono: 3%
  PT: 16.4 s
  Plat: 126.6 x10_4/uL
  RBC: 614.2 x10_4/ul
  Ret: 6.6%
[2]
  ALP: 1599.2 IU/L
  ALT: 44 IU/L
  AST: 86.6 IU/L
  CRE: 0.2 mg/dL
  DBIL: 0.002 mg/dL
  GLC: 185.4 mg/dL
  K: 4.2 meq/L
  Na: 142.4 meq/L
  RALB: 2.9 g/dL
  TBIL: 0.018 mg/dL
  TC: 67.8 mg/dL
  TG: 81 mg/dL
  TP: 5.1 g/dL
  gamma-GTP: 1.6 IU/L
1 mg/kg, 6 h, dose level Low
  TERMINAL_BW: 211.5 g
  KIDNEY_L: 1 g
  KIDNEY_R: 1 g
  KIDNEY_TOTAL: 1.9 g
  LIVER: 8.9 g
[3]
  Bas: 0%
  Eos: 0.4%
  Fbg: 292.8 mg/dL
  Hb: 13 g/dL
  Ht: 38.2%
  Lym: 79.4%
  MCH: 21.9 pg
  MCHC: 34.2%
  MCV: 64 fL
  Mono: 3.4%
  PT: 15.9 s
  Plat: 117.6 x10_4/uL
  RBC: 598.8 x10_4/ul
  Ret: 7%
[4]
  ALP: 1586.4 IU/L
  ALT: 43.4 IU/L
  AST: 78.8 IU/L
  CRE: 0.1 mg/dL
  DBIL: 0 mg/dL
  GLC: 172 mg/dL
  K: 4.2 meq/L
  Na: 140.6 meq/L
  RALB: 2.9 g/dL
  TBIL: 0.022 mg/dL
  TC: 71.8 mg/dL
  TG: 62.6 mg/dL
  TP: 5.2 g/dL
  gamma-GTP: 1.6 IU/L
1 mg/kg, 9 h, dose level Low
  TERMINAL_BW: 206.4 g
  KIDNEY_L: 0.9 g
  KIDNEY_R: 0.9 g
  KIDNEY_TOTAL: 1.8 g
  LIVER: 8.1 g
[5]
  Bas: 0%
  Eos: 1%
  Fbg: 286.2 mg/dL
  Ht: 38.8%
  Lym: 74.8%
  MCH: 21.3 pg
  MCHC: 34.3%
  MCV: 62.3 fL
  Mono: 3%
  Neu: 20.4%
  PT: 16.4 s
  Plat: 115.3 x10_4/uL
  RBC: 624 x10_4/ul
  Ret: 6.7%
[6]
  ALP: 1211 IU/L
  AST: 73.4 IU/L
  CRE: 0.1 mg/dL
  DBIL: 0 mg/dL
  GLC: 180 mg/dL
  K: 4.2 meq/L
  LDH: 136.6 IU/L
  Na: 140.2 meq/L
  RALB: 3 g/dL
  TBIL: 0.02 mg/dL
  TC: 67.8 mg/dL
  TG: 52.6 mg/dL
  TP: 5.3 g/dL
  gamma-GTP: 1.2 IU/L
1 mg/kg, 24 h, dose level Low
  TERMINAL_BW: 218.4 g
  KIDNEY_L: 0.9 g
  KIDNEY_R: 1 g
  KIDNEY_TOTAL: 1.9 g
[7]
  Bas: 0%
  Eos: 0.8%
  Fbg: 307.6 mg/dL
  Ht: 37.2%
  Lym: 83.2%
  MCH: 21.6 pg
  MCHC: 35.8%
  MCV: 60.4 fL
  Mono: 3.4%
  PT: 16.7 s
  Plat: 116 x10_4/uL
  RBC: 617.4 x10_4/ul
  Ret: 6.2%
[8]
  ALP: 1436.4 IU/L
  AST: 68.2 IU/L
  CRE: 0.2 mg/dL
  DBIL: 0.002 mg/dL
  GLC: 191.8 mg/dL
  K: 4.3 meq/L
  Na: 142.4 meq/L
  RALB: 3 g/dL
  TBIL: 0.024 mg/dL
  TC: 75.2 mg/dL
  TG: 102.4 mg/dL
  TP: 5.6 g/dL
  gamma-GTP: 1.4 IU/L
3 mg/kg, 3 h, dose level Middle
  TERMINAL_BW: 212.4 g
3 mg/kg, 3 h, tissue Blood, dose level Middle
  Bas: 0%
